The subject of one series is HEK293 cells. The series can be described thus: NADH/NAD+ ratio in H2O2-exposed HEK293 cells (NAD/NADH-Glo). Type of series: cell-based. The following applies: NRH at 100 and 1000 μM, NR at all tested concentrations (0.01-1000 μM). On the procedure:
HEK293 cells were trypsinized and plated at a density of 60,000 cells per well. The cells were then treated with H2O2 (600 μM prepared with Dulbecco's Modified Eagle Medium [DMEM]) for 30 min. The media was then replaced with serum media (DMEM supplemented with 10% fetal bovine serum [FBS]) containing NRH or NR, and were incubated at 37° C. under 6% CO2 for 30 min or 6 hr. The cells were incubated with the following concentrations of NRH or NR: 0.01, 0.1, 1.0, 10, 100 and 1000 μM. NAD^+ and NADH levels at 30 min and 6 hr were estimated using the NAD/NADH-Glo Promega Bioluminescent assay. The results were expressed as fold change relative to the values obtained with untreated cells.

For the next series, the system named is red blood cells (RBCs). The series can be described thus: H2O2-induced hemolysis in vitro. Type of series: cell-based. Particulars: 2000, 200 and 20 μM, pre-incubation 1 hr at 37° C., then H2O2 4 hr. On the procedure:
Individual test compounds were dissolved in 0.9% normal saline to prepare 0.3 M stock solutions. A 0.3 M stock solution was added to a 20% suspension of washed red blood cells (RBCs) in saline to obtain final concentrations of 2000 μM, 200 μM and 20 μM of the compound. The RBC suspensions were incubated with the test compound at 37° C. for 1 hr prior to testing. A 2.5% H2O2 solution was prepared fresh by dilution with normal saline and chilled at 2-8° C. before use. Each RBC suspension containing the test compound was split into tubes A and B. 250 μL of the chilled H2O2 solution was added to 250 μL of RBC suspension in each tube while maintaining the tubes in an ice bath. The tubes were incubated at 37° C. for 4 hr, and then 4.5 mL of saline or de-ionized water was added to tube A or tube B, respectively. After the tubes were incubated for 10 min, the mixture in the tubes was centrifuged at 1800 g, and then absorbance was measured in the supernatant at 540 nm. The percentage of hemolysis was calculated as: […]

Series [1] is described as follows: Stability in human serum in vitro (absorbance over time). Type of series: in vitro ADME. Particulars: 100 μM, 37° C. As for the experimental part:
Three blood samples were collected from healthy human donors with the same blood group in serum separator vacutainer gel tubes. The samples were centrifuged at 1,800 g to separate serum. The serum samples obtained were pooled together into a separate tube.
NR, NRH and NRH-triacetate (NRHTA) were initially dissolved in DMSO and then diluted with normal saline to obtain a 1 mM stock solution of each compound. 100 μL of stock solution was added to 900 μL of pooled serum to assess the stability of the test compound in human serum. 200 μL of saline with 1,800 μL of pooled serum was used to prepare a solution for blanking and as a reference measurement. The stock solutions were diluted in the pooled serum and normal saline to prepare 100 μM solutions of the test compounds.
In previous experiments, spectral scans between 190 nm and 1100 nm were performed to determine absorbance maxima for NR, NRH and NRHTA, which have maximal absorbance at 265 nm, 340 nm and 331 nm, respectively, in solution.
The stability of a test compound in human serum was determined by a change in the concentration of the compound as measured by a change in absorbance at the maximal absorbance wavelength for the compound as a function of time. The test compounds at 100 μM were incubated in human serum at 37° C. Absorbance measurements were made at 0 min (T0), 5 min, 30 min, 120 min, 240 min, 360 min and 1440 min (24 hr). The relative change in absorbance compared to T0 was plotted and used for statistical analysis. The analysis was performed in triplicates.

Series [2] concerns peripheral blood mononuclear cells (PBMCs). The series is described as follows: Extracellular acidification rate (ECAR, a measure of glycolysis) in activated PBMCs, Seahorse XF. Type of series: cell-based, human. The following applies: 250 μM, 4 hr, PBMCs stimulated with anti-CD3 and anti-CD28 antibodies. On the procedure:
PBMCs (1.5×10^6) obtained from a healthy human adult donor were unstimulated or stimulated with anti-CD3 and anti-CD28 antibodies (1 μg/mL each) to induce T-cell activation, in the absence or presence of 250 μM NRH for 4 hr. The cells were then washed and plated on poly-D-lysine-coated Seahorse XF microplates at a density of 3×10^5 cells per well (5 replicates). The plates were centrifuged briefly and incubated at 37° C. in a non-CO2 incubator for 30 min to settle the cells in the bottom of the plate. Extracellular acidification rate (ECAR, a measure of glycolysis) and oxygen consumption rate (OCR, a measure of oxidative phosphorylation) were determined using a Seahorse XF cell mito stress test kit and a Seahorse Xfe96 analyzer (Agilent Technologies, Santa Clara, California) under basal condition or in response to 1.0 μM oligomycin (an inhibitor of ATP synthase), 1.5 μM carbonyl cyanide-p-trifluoromethoxyphenylhydrazone (FCCP, a mitochondrial uncoupler), 0.5 μM rotenone (an inhibitor of electron transport at complex I) and antimycin A (an inhibitor of electron transport at cytochrome c reductase). PBMCs include monocytes and lymphocytes including T cells, B cells and natural killer cells.

The test system of a further series is RBC hemoglobin. The series can be described thus: H2O2-induced oxidative changes of RBC hemoglobin in vitro (spectral scans). Type of series: cell-based, human. As for the experimental part:
A 4 M stock solution of sodium azide was prepared. One mL of the 4 M stock azide solution was diluted with 9 mL of phosphate-buffered saline (PBS, pH 7.4) to obtain a 0.4 M stock solution, which was further diluted with PBS to obtain a 0.01 M working solution of sodium azide. Eight mL of whole blood was collected in buffered acid citrate dextrose tubes from a healthy human donor. PBS was added to 500 μL of whole blood. The samples were centrifuged, and then the supernatant from each tube was discarded to obtain a red blood cell (RBC) pellet. Ten μL of 0.01 M sodium azide working solution was added to 20 μL of RBC suspension. Twenty μL of hydrogen peroxide (H2O2) diluted in PBS was added to the RBC suspension to obtain final concentrations of H2O2 ranging from 0.01 mM to 100 mM. The samples were incubated at 37° C. for 1.5 hr. 950 μL of de-ionized water was added to the samples, which were then incubated for 10 min to lyse the RBCs and obtain hemoglobin upon centrifugation at 1,500 g. Spectral scans of the lysed samples between 200 nm and 1100 nm were obtained in 2 nm increments, using a Systronics® dual-beam UV-spectrophotometer and de-ionized water as a blank. Samples incubated with PBS at 37° C. for 1-1.5 hr were used as controls to establish the oxidative effects of H2O2 on RBC hemoglobin. Absorbance at 576 nm is a measure of hemoglobin concentration in a sample, and oxidation of hemoglobin to methemoglobin results in a drop in absorbance at 576 nm and an increase in absorbance at 630 nm. Fantao et al., Anal. Biochem., 521:11-19, (2017). Stock solutions of NRH (29.6 mM) and NR (18.3 mM) were prepared in 0.9% normal saline. Appropriate quantities of the stock NRH or NR solution and PBS were added to 500 μL of whole blood to obtain final concentrations of NRH or NR ranging from 1 μM to 1000 μM. The whole blood samples with NRH or NR were mixed gently and incubated at 37° C. for 1-1.5 hr. The samples were centrifuged, and then the supernatant was discarded to obtain an RBC pellet for each sample.

Series [3] concerns CD4^+ T cells. The series can be described thus: Cell death including apoptosis (annexin V, flow cytometry) of CD4+ T cells with depolarized mitochondria. Type of series: cell-based, human. Particulars: 250 μM, 24 hr, unstimulated or stimulated with anti-CD3 and anti-CD28 antibodies. On the procedure: (§1) PBMCs (10^6 cells per test group) obtained from healthy human adult donors were unstimulated or stimulated with anti-CD3 and anti-CD28 antibodies to induce T-cell activation, in the absence or presence of 250 μM of NRH or NRH-triacetate (NRHTA). Measurements were made at 5, 15 and 24 hr after treatment.
(§2) After the indicated time of incubation, the PBMCs were stained with anti-CD3, anti-CD4 and anti-CD8 antibodies (Biolegend), JC-1 (1 μM, Thermo Fisher) and annexin V (Thermo Fisher) prior to analysis by flow cytometry. Annexin V binds to cell-surface phosphatidylserine, which is a marker for different forms of cell death including apoptosis and necrosis. The stained cells were re-suspended in phosphate-buffered saline (PBS) and acquired in a Cytek Aurora flow cytometer using a FlowJo software (v10) for analysis. About 200,000-300,000 cells were acquired in the flow cytometer for analysis. Standard procedures for spectral compensation were performed to obtain cell populations. Lymphocytes identified by forward and side scatter were gated to obtain CD3^+/CD4^+ and CD3^+/CD8^+ T-cell populations. Those T-cell populations were gated to identify the red and green signals for JC-1 aggregate and monomer, respectively, and annexin V. The percentage of cells staining green by JC-1 monomer was used to determine the percentage of cells with depolarized mitochondria. […]

Series [4] has as its system CD8^+ T cells. The series can be described thus: Cell death including apoptosis (annexin V, flow cytometry) of CD8+ T cells with depolarized mitochondria. Type of series: cell-based, human. Particulars: 250 μM, 24 hr, unstimulated or stimulated with anti-CD3 and anti-CD28 antibodies. As for the experimental part: as §1, §2
The test system of series [5] is CD8^+ T cells. The series is described as follows: Mitochondrial membrane depolarization (JC-1, flow cytometry) in CD8+ T cells. Type of series: cell-based, human. The following applies: 250 μM, 24 hr, unstimulated or stimulated with anti-CD3 and anti-CD28 antibodies. As for the experimental part:
as §1, §2

In series [6] the test system is CD8^+ T cells. The series is described as follows: Ex vivo polyclonal immune activation model: intracellular cytokine production in CD8+ T cells (flow cytometry). Type of series: cell-based, human. Particulars: stimulated with anti-CD3 and anti-CD28 antibodies; data not shown. On the procedure: (§3) Heparinized venous blood was collected from healthy human adult donors. Peripheral blood mononuclear cells (PBMCs) were isolated by Ficoll-Hypaque density-gradient centrifugation. PBMCs (1.0×10^6) were seeded in round-bottom, 96-well plates in 200 μL of medium, unstimulated or stimulated with an anti-CD3 antibody ([…], clone-HIT3a, Biolegend) plus an anti-CD28 antibody (1 μg/mL, clone-CD28.2, Biolegend) to induce T-cell activation, and incubated in cell-culture medium. The PBMCs were unstimulated or stimulated with anti-CD3 and anti-CD28 antibodies to induce T-cell activation, in the absence or presence of 250 μM NRH. After 18 hours of incubation, lymphocytes were analyzed for intracellular levels of IFN-γ, TNF-α and IL-2 by flow cytometry. Intracellular cytokine production was stopped by treating the cells with Golgi stop after 1 hr of treatment.

Series [7] concerns CD4^+ T cells. The series can be described thus: Ex vivo polyclonal immune activation model: cytokine production in CD4+ T cells. The following applies: stimulated with anti-CD3 and anti-CD28 antibodies; data not shown. Type of series: cell-based, human. As for the experimental part:
as §3

In series [8] the test system is CD4^+ T cells. The series can be described thus: Mitochondrial membrane depolarization (JC-1, flow cytometry) in CD4+ T cells. Type of series: cell-based, human. The following applies: 250 μM, 24 hr, unstimulated or stimulated with anti-CD3 and anti-CD28 antibodies. On the procedure: as §1, §2

`NC(=O)c1ccc[n+]([C@@H]2O[C@H](CO)[C@@H](O)[C@H]2O)c1` [NR, nicotinamide riboside, reference compound]: the “NADH/NAD+ ratio in HEK293 cells exposed to H2O2” value in the series with HEK293 cells (30 min of incubation) and in the series on HEK293 cells (6 hr of incubation) was “did not significantly affect” in each case. The H2O2-induced hemolysis entry in the series on red blood cells (RBCs) is on record as “neither NR (MP-02) nor NR-triacetate (MP-39) at any concentration tested, reduced H2O2-induced hemolysis”. In addition, the “compound remaining intact in human serum within 5 min” value in series [1] (within 5 min of addition, absorbance at 265 nm) is “most of NR did not remain intact”. In addition, in series [2], the “extracellular acidification rate (ECAR, a measure of glycolysis) in activated PBMCs” value is recorded as “Unlike NR (data not shown), NRH reduced glycolysis”. In addition, the “A576/A630 ratio (a measure of the hemoglobin/methemoglobin ratio)” value in the series on RBC hemoglobin (RBCs exposed to 1 mM H2O2, 1 μM or 100 μM NRH, NR data not shown) is reported as “did not significantly affect”. The “protection of hemoglobin from 1 mM H2O2-induced oxidative changes (amplitude of absorbance peaks at 576, 540, 434, 348 and 270 nm)” value in the series on RBC hemoglobin (pre-incubation of RBCs with 1, 10 and 100 µM) is “not with NR (MP02), protected hemoglobin”.

Take `CC(=O)OC[C@H]1O[C@@H]([n+]2cccc(C(N)=O)c2)[C@H](OC(C)=O)[C@@H]1OC(C)=O.O=S(=O)([O-])C(F)(F)F` [NR-triacetate, 3-Carboxamide-N-(2,3,5-tri-O-acetyl-β-D-ribofuranosyl)pyridinium Triflate, reference compound]: the H2O2-induced hemolysis result with red blood cells (RBCs) is listed as “neither NR (MP-02) nor NR-triacetate (MP-39) at any concentration tested, reduced H2O2-induced hemolysis”.

With `CC(=O)OC[C@H]1O[C@@H](N2C=CCC(C(N)=O)=C2)[C@H](OC(C)=O)[C@@H]1OC(C)=O` [NRH-triacetate, N-(2,3,5-tri-O-acetyl-β-D-ribofuranosyl)dihydronicotinamide], the “cell death including apoptosis of CD4+ T cells with depolarized mitochondria” value in the series on CD4^+ T cells [3] is given as “reduced cell death”. Also, the “cell death including apoptosis of CD8+ T cells with depolarized mitochondria” value with CD8^+ T cells [4] is “reduced cell death”. In addition, in the series with CD8^+ T cells [5], the “mitochondrial membrane depolarization in CD8+ T cells” value was “significantly induced”. In addition, the “production of pro-inflammatory cytokines (e.g., TNF-α, IL-2, IFN-γ) by CD8+ T cells” value in the series on CD8^+ T cells [6] is given as “reduced production of pro-inflammatory cytokines”. Besides, in the series with CD4^+ T cells [7], the “production of pro-inflammatory cytokines (e.g., TNF-α, IL-2, IFN-γ) by CD4+ T cells” value is recorded as “reduced production of pro-inflammatory cytokines”. Further, the H2O2-induced hemolysis result in the series on red blood cells (RBCs) is on record as “reduced H2O2-induced hemolysis”. For the same molecule, the “compound remaining intact in human serum after 6 hr” value in series [1] (6 hr) is “Most of both NRH and NRH-triacetate remained intact”. The “compound remaining intact in human serum after 24 hr” value in [1] (24 hr) was “about 50%”. For the same molecule, in series [1] (up to 24 hr, p<0.05), the “stability in human serum compared with NR” value was “much more stable”. Also, the “mitochondrial membrane depolarization in CD4+ T cells” value in the series on CD4^+ T cells [8] is given as “significantly induced”.
